Measurements from patent US10711004B2 (Genentech, Inc., priority 2018, dated 2020).
Like-named read-outs stand apart in the source and are kept apart here.

Molecular target: human TRPA1 channel (Homo sapiens (Human), UniProt O75762)
Experiment: hTRPA1 CHO Ca2+ FLIPR Tetra assay, block of cinnamaldehyde induced calcium influx
Format: cell-based
Conditions: CHO cells expressing TRPA1, Hill coefficient fixed to 1.5
In short: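 Calcium-dye-loaded TRPA1-expressing CHO cells in HBSS/20 mM HEPES pH 7.4, 0.02% BSA were preincubated with compound for 10 or 90 min at room temperature. Calcium influx evoked by roughly an EC50 concentration of cinnamaldehyde was then read on FLIPR Tetra; IC50 came from curve fits with a fixed Hill coefficient.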

[1] = read-out: hTRPA1 IC50 (10 min), compounds incubated 10 minutes at room temperature before cinnamaldehyde agonist
[2] = read-out: hTRPA1 IC50 (90 min), compounds incubated 90 minutes at room temperature before cinnamaldehyde agonist

Chain of human TRPA1 channel (O75762 whole entry): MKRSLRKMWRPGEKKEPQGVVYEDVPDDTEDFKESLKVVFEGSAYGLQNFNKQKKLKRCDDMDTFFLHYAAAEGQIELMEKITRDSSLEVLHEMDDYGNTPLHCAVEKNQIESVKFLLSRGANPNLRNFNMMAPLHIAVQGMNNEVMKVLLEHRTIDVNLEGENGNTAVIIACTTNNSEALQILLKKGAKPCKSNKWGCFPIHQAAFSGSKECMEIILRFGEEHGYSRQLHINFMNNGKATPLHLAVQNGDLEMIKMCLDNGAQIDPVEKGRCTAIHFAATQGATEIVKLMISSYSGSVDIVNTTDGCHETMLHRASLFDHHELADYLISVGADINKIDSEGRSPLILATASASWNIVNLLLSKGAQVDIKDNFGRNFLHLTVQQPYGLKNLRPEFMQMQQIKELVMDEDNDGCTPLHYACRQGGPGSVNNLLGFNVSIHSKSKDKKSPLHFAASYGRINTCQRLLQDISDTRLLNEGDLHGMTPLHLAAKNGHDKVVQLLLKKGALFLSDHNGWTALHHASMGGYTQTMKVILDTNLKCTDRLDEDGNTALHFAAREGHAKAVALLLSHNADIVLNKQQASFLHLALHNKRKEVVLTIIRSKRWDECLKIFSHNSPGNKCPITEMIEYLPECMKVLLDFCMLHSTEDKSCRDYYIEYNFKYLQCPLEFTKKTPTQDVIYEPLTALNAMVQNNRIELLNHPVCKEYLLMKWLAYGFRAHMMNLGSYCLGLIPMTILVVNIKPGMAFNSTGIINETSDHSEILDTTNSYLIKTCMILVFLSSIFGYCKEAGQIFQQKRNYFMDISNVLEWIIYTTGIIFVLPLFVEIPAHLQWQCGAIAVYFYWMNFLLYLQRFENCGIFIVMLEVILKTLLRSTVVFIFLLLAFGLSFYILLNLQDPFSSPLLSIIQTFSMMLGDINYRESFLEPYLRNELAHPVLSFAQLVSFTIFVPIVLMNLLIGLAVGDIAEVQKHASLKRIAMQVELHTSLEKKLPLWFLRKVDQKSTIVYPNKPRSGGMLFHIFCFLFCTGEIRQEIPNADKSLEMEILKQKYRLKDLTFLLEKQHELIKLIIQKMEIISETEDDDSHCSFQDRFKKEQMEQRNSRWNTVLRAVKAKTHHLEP

| SMILES | IC50 [1] [nM] | IC50 [2] [nM] |
| --- | --- | --- |
| COc1ccc(C2=C[C@@H]3[C@H](C2)[C@H]3c2noc(Cn3cnc4ncn(C)c4c3=O)n2)cc1 [Example Compound 118, 1-((3-((1S,5S,6R)-3-(4-methoxyphenyl)bicyclo[3.1.0]hex-2-en-6-yl)-1,2,4-oxadiazol-5-yl)methyl)-7-methyl-1,7-dihydro-6H-purin-6-one] | 41.8 | 15 |
| COc1ccc(C2=C[C@H]3[C@@H](C2)[C@@H]3c2noc(Cn3cnc4ncn(C)c4c3=O)n2)cc1 [Example Compound 119, 1-((3-((1R,5R,6S)-3-(4-methoxyphenyl)bicyclo[3.1.0]hex-2-en-6-yl)-1,2,4-oxadiazol-5-yl)methyl)-7-methyl-1,7-dihydro-6H-purin-6-one] | 26.6 | 16 |
| Cn1cnc2ncn(Cc3nc([C@H]4[C@@H]5CN(c6cc7ccccc7cn6)C[C@@H]54)no3)c(=O)c21 [Example Compound 120, 1-((3-((1R,5S,6r)-3-(isoquinolin-3-yl)-3-azabicyclo[3.1.0]hexan-6-yl)-1,2,4-oxadiazol-5-yl)methyl)-7-methyl-1,7-dihydro-6H-purin-6-one] | 90.8 | 81 |
| O=c1c2c(Cl)ccnc2ncn1Cc1nc([C@H]2C[C@](F)(c3ccc(Cl)cc3)C2)no1 [Example Compound 121, 5-chloro-3-((3-((1s,3s)-3-(4-chlorophenyl)-3-fluorocyclobutyl)-1,2,4-oxadiazol-5-yl)methyl)pyrido[2,3-d]pyrimidin-4(3H)-one] | 13.1 | 22 |
| Cn1cnc2ncn(Cc3nc([C@H]4[C@@H]5C=C(c6ccc(Cl)cn6)C[C@@H]54)no3)c(=O)c21 [Example Compound 122, 1-((3-((1S,5S,6R)-3-(5-chloropyridin-2-yl)bicyclo[3.1.0]hex-2-en-6-yl)-1,2,4-oxadiazol-5-yl)methyl)-7-methyl-1,7-dihydro-6H-purin-6-one] | 142 | 130 |
| Cn1cnc2ncn(Cc3nc([C@@H]4[C@H]5C=C(c6ccc(Cl)cn6)C[C@H]54)no3)c(=O)c21 [Example Compound 123, 1-((3-((1R,5R,6S)-3-(5-chloropyridin-2-yl)bicyclo[3.1.0]hex-2-en-6-yl)-1,2,4-oxadiazol-5-yl)methyl)-7-methyl-1,7-dihydro-6H-purin-6-one] | 296 | 360 |
| Cn1cnc2ncn(Cc3nc([C@@H]4[C@H]5C=C(c6ccc(F)cc6)C[C@H]54)no3)c(=O)c21 [Example Compound 124, 1-((3-((1R,5R,6S)-3-(4-fluorophenyl)bicyclo[3.1.0]hex-2-en-6-yl)-1,2,4-oxadiazol-5-yl)methyl)-7-methyl-1,7-dihydro-6H-purin-6-one] | 10.9 | 7.5 |
| Cn1cnc2ncn(Cc3nc([C@H]4[C@@H]5C=C(c6ccc(F)cc6)C[C@@H]54)no3)c(=O)c21 [Example Compound 125, 1-((3-((1S,5S,6R)-3-(4-fluorophenyl)bicyclo[3.1.0]hex-2-en-6-yl)-1,2,4-oxadiazol-5-yl)methyl)-7-methyl-1,7-dihydro-6H-purin-6-one] | 7.48 | 3 |
| Cn1cnc2ncn(Cc3nc([C@H]4[C@@H]5C=C(c6ccncc6)C[C@@H]54)no3)c(=O)c21 [Example Compound 126, 7-methyl-1-((3-((1S,5S,6R)-3-(pyridin-4-yl)bicyclo[3.1.0]hex-2-en-6-yl)-1,2,4-oxadiazol-5-yl)methyl)-1,7-dihydro-6H-purin-6-one] | 189 | 96 |
| Cn1cnc2ncn(Cc3nc([C@@H]4[C@H]5C=C(c6ccncc6)C[C@H]54)no3)c(=O)c21 [Example Compound 127, 7-methyl-1-((3-((1R,5R,6S)-3-(pyridin-4-yl)bicyclo[3.1.0]hex-2-en-6-yl)-1,2,4-oxadiazol-5-yl)methyl)-1,7-dihydro-6H-purin-6-one] | 129 | 85 |
| Cn1cnc2ncn(Cc3nc([C@@H]4[C@H]5C=C(c6ccccn6)C[C@H]54)no3)c(=O)c21 [Example Compound 128, 7-methyl-1-((3-((1R,5R,6S)-3-(pyridin-2-yl)bicyclo[3.1.0]hex-2-en-6-yl)-1,2,4-oxadiazol-5-yl)methyl)-1,7-dihydro-6H-purin-6-one] | 118 | 78 |
| Cn1cnc2ncn(Cc3nc([C@H]4[C@@H]5C=C(c6ccccn6)C[C@@H]54)no3)c(=O)c21 [Example Compound 129, 7-methyl-1-((3-((1S,5S,6R)-3-(pyridin-2-yl)bicyclo[3.1.0]hex-2-en-6-yl)-1,2,4-oxadiazol-5-yl)methyl)-1,7-dihydro-6H-purin-6-one] | 209 | 210 |
| Cn1nnc2ncn(Cc3nc([C@H]4[C@@H]5CN(c6cc(Cl)ccn6)C[C@@H]54)no3)c(=O)c21 [Example Compound 130, 6-((3-((1R,5S,6r)-3-(4-chloropyridin-2-yl)-3-azabicyclo[3.1.0]hexan-6-yl)-1,2,4-oxadiazol-5-yl)methyl)-1-methyl-1,6-dihydro-7H-[1,2,3]triazolo[4,5-d]pyrimidin-7-one] | 74.5 | 44 |
| Cn1cnc2ncn(Cc3nc([C@H]4[C@@H]5CN(c6ccncc6F)C[C@@H]54)no3)c(=O)c21 [Example Compound 131, 1-((3-((1R,5S,6r)-3-(3-fluoropyridin-4-yl)-3-azabicyclo[3.1.0]hexan-6-yl)-1,2,4-oxadiazol-5-yl)methyl)-7-methyl-1,7-dihydro-6H-purin-6-one] | 383 | 110 |
| Cn1cnc2ncn(Cc3nc([C@H]4[C@@H]5CN(c6ncccc6F)C[C@@H]54)no3)c(=O)c21 [Example Compound 132, 1-((3-((1R,5S,6r)-3-(3-fluoropyridin-2-yl)-3-azabicyclo[3.1.0]hexan-6-yl)-1,2,4-oxadiazol-5-yl)methyl)-7-methyl-1,7-dihydro-6H-purin-6-one] | 143 | 110 |
| Cn1cnc2ncn(Cc3nc([C@H]4[C@@H]5C=C(c6cccnc6)C[C@@H]54)no3)c(=O)c21 [Example Compound 133, 7-methyl-1-((3-((1S,5S,6R)-3-(pyridin-3-yl)bicyclo[3.1.0]hex-2-en-6-yl)-1,2,4-oxadiazol-5-yl)methyl)-1,7-dihydro-6H-purin-6-one] | 179 | 160 |
| Cn1cnc2ncn(Cc3nc([C@@H]4[C@H]5C=C(c6cccnc6)C[C@H]54)no3)c(=O)c21 [Example Compound 134, 7-methyl-1-((3-((1R,5R,6S)-3-(pyridin-3-yl)bicyclo[3.1.0]hex-2-en-6-yl)-1,2,4-oxadiazol-5-yl)methyl)-1,7-dihydro-6H-purin-6-one] | 348 | 440 |
| Cn1cnc2ncn(Cc3nc([C@H]4[C@@H]5C=C(c6ccc7ccncc7c6)C[C@@H]54)no3)c(=O)c21 [Example Compound 135, 1-((3-((1S,5S,6R)-3-(isoquinolin-7-yl)bicyclo[3.1.0]hex-2-en-6-yl)-1,2,4-oxadiazol-5-yl)methyl)-7-methyl-1,7-dihydro-6H-purin-6-one] | 58.7 | 48 |
| Cn1cnc2ncn(Cc3nc([C@@H]4[C@H]5C=C(c6ccc7ccncc7c6)C[C@H]54)no3)c(=O)c21 [Example Compound 136, 1-((3-((1R,5R,6S)-3-(isoquinolin-7-yl)bicyclo[3.1.0]hex-2-en-6-yl)-1,2,4-oxadiazol-5-yl)methyl)-7-methyl-1,7-dihydro-6H-purin-6-one] | 16.6 | 7.6 |
